Source: paper PMC5042776 (Molecular Medicine Reports, 2016)
Values after ≈ are worked out from the molar mass of the structure shown. Where two headings read alike, the source gives them in different places. Marks after values point to notes of the source that are not given here.

Tests used:
[1] = system: serum IFN-β, IL-6, TNF-α, IL-1β; type: in vivo, ICR mice; conditions: after 5 days of treatment
[2] = system: A/shenzhen/203/2001 (H3N2 subtype); assay: microbe, parasite or virus in culture; type: cell-based, influenza A virus; conditions: for SI (H3N2): CC50/IC50; for IC50: Influenza A virus, H3N2, MDCK, 72 h, read-out: IC50 (H3N2)
[3] = system: influenza A/PR/8/34 virus (H1N1 subtype); assay: microbe, parasite or virus in culture; type: cell-based; conditions: for SI (H1N1): CC50/IC50; for IC50: Influenza A virus, H1N1|PR/8, MDCK, 72 h, read-out: IC50 (H1N1)
Cytotoxicity assay = type: cell-based, canine; conditions: dog, MDCK cells
influenza A virus (IAV) [4] = assay: IAV-induced acute lung injury in mice; type: in vivo, ICR mice
[5] = system: Toll-like receptor 7 (TLR7) signaling pathway; type: in vivo, ICR mice
influenza A virus (IAV) [6] = type: in vivo, ICR mice
[7] = 10 mg/kg intragastric once daily 5 days
[8] = 20 mg/kg intragastric once daily 5 days
[9] = 40 mg/kg intragastric once daily 5 days
[10] = 50 mg/kg intragastric once daily 5 days

C=C1CCC[C@]2(C)Cc3occ(C)c3C[C@@H]12 [Atractylon, atractylon]
IFN-β (serum) ([1]; 10 mg/kg): 25.8 ± 2.87 pg/mL | IL-1β (serum) ([1]; 10 mg/kg): 17.2±1.35 ^b pg/ml | IL-6 (serum) ([1]; 10 mg/kg): 19.5±2.76 ^b pg/ml | TNF-α (serum) ([1]; 10 mg/kg): 16.2±2.27 ^a pg/ml | IFN-β (serum) ([1]; 20 mg/kg): 29.4±3.27 ^a pg/ml | IL-1β (serum) ([1]; 20 mg/kg): 16.5±1.17 ^b pg/ml | IL-6 (serum) ([1]; 20 mg/kg): 17.4±1.11 ^b pg/ml | TNF-α (serum) ([1]; 20 mg/kg): 11.8±1.94 ^b pg/ml | IFN-β (serum) ([1]; 40 mg/kg): 30.8±3.31 ^b pg/ml | IL-1β (serum) ([1]; 40 mg/kg): 13.4±0.74 ^b pg/ml | IL-6 (serum) ([1]; 40 mg/kg): 12.8±1.16 ^b pg/ml | TNF-α (serum) ([1]; 40 mg/kg): 9.20±0.77 ^b pg/ml | SI (H3N2) [2]: 27.8 | IC50 [2]: 9.4 µg/mL (≈ 43.5 µM) | SI (H1N1) [3]: 29.4 | SI values relative to those of ribavirin ([3]; H1N1 and H3N2): approximately 3 fold | IC50 [3]: 8.9 µg/mL (≈ 41.1 µM) | CC50 at 3 days (Cytotoxicity assay): 261 µg/mL (≈ 1210 µM) | Inhibitory rate (lung index) (influenza A virus (IAV) [4]; [7]): 27.5% | Lung index (influenza A virus (IAV) [4]; [7]): 17.43±4.16 ^a mg/g | Viral load (lung) (influenza A virus (IAV) [4]; [7]): 4.79±0.84 ^b ×10^6 copies | Inhibitory rate (lung index) (influenza A virus (IAV) [4]; [8]): 58.8% | Lung index (influenza A virus (IAV) [4]; [8]): 13.08±4.54 ^b mg/g | Viral load (lung) (influenza A virus (IAV) [4]; [8]): 2.56±0.72 ^b ×10^6 copies | Inhibitory rate (lung index) (influenza A virus (IAV) [4]; [9]): 74.5% | Lung index (influenza A virus (IAV) [4]; [9]): 10.90±3.76 ^b mg/g | Viral load (lung) (influenza A virus (IAV) [4]; [9]): 0.36±0.15 ^b ×10^6 copies | histological damage of lung (influenza A virus (IAV) [4]; 10–40 mg/kg, H&E staining): improved | mRNA expressions of TLR7, MyD88, TRAF6 and IFN-β in lung tissue ([5]; compared with model control group, P<0.01): obviously upregulated | NF-κB p65 protein expression in lung tissue ([5]; mouse, in vivo): downregulated | Life prolong rate (influenza A virus (IAV) [6]; [7]): 17.7% | MDD ± SD (mean day to death) (influenza A virus (IAV) [6]; [7]): 9.3±3.6 ^a day | Survival rate (influenza A virus (IAV) [6]; [7]): 30.0% | Survived/total (influenza A virus (IAV) [6]; [7]): 6/20 | Life prolong rate (influenza A virus (IAV) [6]; [8]): 41.8% | MDD ± SD (mean day to death) (influenza A virus (IAV) [6]; [8]): 11.2±3.3 ^a day | Survival rate (influenza A virus (IAV) [6]; [8]): 55.0% | Survived/total (influenza A virus (IAV) [6]; [8]): 11/20 | Life prolong rate (influenza A virus (IAV) [6]; [9]): 57.0% | MDD ± SD (mean day to death) (influenza A virus (IAV) [6]; [9]): 12.4±2.6 ^a day | Survival rate (influenza A virus (IAV) [6]; [9]): 70.0% | Survived/total (influenza A virus (IAV) [6]; [9]): 14/20

NC(=O)c1ncn([C@@H]2O[C@H](CO)[C@@H](O)[C@H]2O)n1 [Ribavirin, reference compound]
IFN-β (serum) ([1]; 50 mg/kg): 23.3 ± 2.79 pg/mL | IL-1β (serum) ([1]; 50 mg/kg): 21.6 ± 3.36 pg/mL | IL-6 (serum) ([1]; 50 mg/kg): 18.5±5.99 ^b pg/ml | TNF-α (serum) ([1]; 50 mg/kg): 13.4±1.54 ^b pg/ml | SI (H3N2) [2]: 10.9 | IC50 [2]: 10.7 µg/mL (≈ 43.8 µM) | SI (H1N1) [3]: 8.2 | IC50 [3]: 14.2 µg/mL (≈ 58.1 µM) | CC50 at 3 days (Cytotoxicity assay): 116 µg/mL (≈ 476 µM) | Inhibitory rate (lung index) (influenza A virus (IAV) [4]; [10]): 61.7% | Lung index (influenza A virus (IAV) [4]; [10]): 12.68±3.30 ^b mg/g | Viral load (lung) (influenza A virus (IAV) [4]; [10]): 1.38±0.56 ^b ×10^6 copies | Life prolong rate (influenza A virus (IAV) [6]; [10]): 40.5% | MDD ± SD (mean day to death) (influenza A virus (IAV) [6]; [10]): 11.1±3.1 ^a day | Survival rate (influenza A virus (IAV) [6]; [10]): 50.0% | Survived/total (influenza A virus (IAV) [6]; [10]): 10/20

C=C1CCC[C@]2(C)C[C@]3(O)OC(=O)C(C)=C3C[C@@H]12 [Atractylenolide III, atractylenolide III]
SI (H3N2) [2]: 6.7 | IC50 [2]: 28.6 µg/mL (≈ 115 µM) | SI (H1N1) [3]: 7.8 | IC50 [3]: 24.4 µg/mL (≈ 98.3 µM) | CC50 at 3 days (Cytotoxicity assay): 191 µg/mL (≈ 770 µM)
